# Laboratory results: patent US8034936B2, “Spirocyclic cyclohexane compounds useful to treat substance dependency” (Gruenenthal GmbH, priority 2005, dated 2011)
# Experiments:
# mice = conditions: mouse, in vivo, ip, 30 mg/kg
# human μ-opiate receptor = human μ-opiate receptor (Homo sapiens, UniProt P35372); assay: μ-opiate receptor binding, [3H]-naloxone displacement, CHO-K1 membrane preparation; conditions: No. 1-49
# HERG channel = HERG channel (Homo sapiens, UniProt Q12809); conditions: read-out: IC50, HERG channel; Katchman et al. 2002; cited from earlier work
# HERG channel, sequence (Q12809 whole entry): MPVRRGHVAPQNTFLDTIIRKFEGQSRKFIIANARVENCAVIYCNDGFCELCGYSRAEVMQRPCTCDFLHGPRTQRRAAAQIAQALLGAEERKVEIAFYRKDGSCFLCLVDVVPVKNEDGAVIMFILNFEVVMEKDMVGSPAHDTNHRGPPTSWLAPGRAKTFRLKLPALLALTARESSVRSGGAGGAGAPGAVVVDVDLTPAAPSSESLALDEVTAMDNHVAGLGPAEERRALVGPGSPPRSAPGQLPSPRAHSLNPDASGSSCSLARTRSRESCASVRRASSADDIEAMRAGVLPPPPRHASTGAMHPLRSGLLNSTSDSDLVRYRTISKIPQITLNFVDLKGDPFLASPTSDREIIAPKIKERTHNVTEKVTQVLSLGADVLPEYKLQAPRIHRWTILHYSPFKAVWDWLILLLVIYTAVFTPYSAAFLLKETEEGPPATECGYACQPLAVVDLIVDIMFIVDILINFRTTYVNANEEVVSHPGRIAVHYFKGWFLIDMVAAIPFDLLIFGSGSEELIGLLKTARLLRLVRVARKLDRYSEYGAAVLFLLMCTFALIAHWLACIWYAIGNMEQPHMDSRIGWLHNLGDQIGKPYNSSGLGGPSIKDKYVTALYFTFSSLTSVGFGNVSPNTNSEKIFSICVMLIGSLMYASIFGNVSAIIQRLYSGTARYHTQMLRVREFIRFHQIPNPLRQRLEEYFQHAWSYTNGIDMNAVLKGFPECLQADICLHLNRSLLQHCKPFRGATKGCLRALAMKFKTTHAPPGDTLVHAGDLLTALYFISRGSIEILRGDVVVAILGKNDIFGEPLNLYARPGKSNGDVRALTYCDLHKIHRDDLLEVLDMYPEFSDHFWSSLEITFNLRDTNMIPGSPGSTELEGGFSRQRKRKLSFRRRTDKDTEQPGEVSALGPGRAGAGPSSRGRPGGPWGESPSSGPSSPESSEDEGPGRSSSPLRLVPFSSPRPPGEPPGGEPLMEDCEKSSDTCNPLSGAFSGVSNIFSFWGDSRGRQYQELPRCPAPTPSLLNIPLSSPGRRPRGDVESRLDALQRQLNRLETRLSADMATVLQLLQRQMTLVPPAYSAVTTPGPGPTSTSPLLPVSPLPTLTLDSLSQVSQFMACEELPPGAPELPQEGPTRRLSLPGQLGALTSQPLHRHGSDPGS
# human μ-opiate receptor, sequence (P35372 whole entry): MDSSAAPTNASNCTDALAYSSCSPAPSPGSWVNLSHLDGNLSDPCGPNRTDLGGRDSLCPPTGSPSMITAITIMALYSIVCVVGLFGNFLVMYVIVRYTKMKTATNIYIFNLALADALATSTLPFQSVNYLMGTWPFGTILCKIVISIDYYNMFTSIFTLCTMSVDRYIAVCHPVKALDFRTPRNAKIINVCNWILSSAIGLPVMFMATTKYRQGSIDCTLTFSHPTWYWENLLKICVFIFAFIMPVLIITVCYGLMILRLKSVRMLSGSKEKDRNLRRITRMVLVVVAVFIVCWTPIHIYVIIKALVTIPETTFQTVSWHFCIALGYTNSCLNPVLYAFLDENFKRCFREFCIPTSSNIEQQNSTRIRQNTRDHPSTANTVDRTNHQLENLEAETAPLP
smiles,measurement,setting,value
"CCC(=O)C(C[C@@H](C)N(C)C)(c1ccccc1)c1ccccc1 [Levomethadone, levomethadone]",withdrawal jumping triggered by naloxone,mice,induced withdrawal jumping
"CN(C)C1(c2ccccc2)CCC2(CC1)NCCc1c2oc2ccccc12 (stereo not drawn) [Example 12, 1,1-(3-dimethylamino-3-phenylpentamethylene)-1,3,4,9-tetrahydro-2-aza-9-oxafluorene]",Ki,human μ-opiate receptor,0.17 µM
CCC(=O)C(CC(C)N(C)C)(c1ccccc1)c1ccccc1 (racemic) [methadone],IC50,HERG channel,9.8 µM
